“Also recorded” adds a separate entry of the source. Where a SMILES comes first, the peptide text is derived from it. [ ]: non-standard residue; d: D form. The star is where a group is joined. AMC = Cc1cc(=O)oc2cc(N*)ccc12; pGlu = O=C1CC[C@@H](C(=O)O)N1; NHBn = c1ccc(CN*)cc1
What was measured:
TRH-DE [1] = molecular target: T1, TRH-DE (Sus scrofa, UniProt A0A287AP33); experiment: HPLC assay of peptide hydrolysis by TRH-DE (Glp production); assay type: biochemical, porcine; conditions: for Rate of hydrolysis: peptide 1 mM, 37° C., Glp production by HPLC, mean±S.D.
T1 construct: The inventor purified TRH-DE from porcine brain according to purification procedures previously published by Dr. K. Bauer; from tissue; host or cells: porcine brain (TRH-DE); bovine kidney (DPP-IV, gift from Dr. C. H. Williams)
T1 sequence (A0A287AP33 1-1066): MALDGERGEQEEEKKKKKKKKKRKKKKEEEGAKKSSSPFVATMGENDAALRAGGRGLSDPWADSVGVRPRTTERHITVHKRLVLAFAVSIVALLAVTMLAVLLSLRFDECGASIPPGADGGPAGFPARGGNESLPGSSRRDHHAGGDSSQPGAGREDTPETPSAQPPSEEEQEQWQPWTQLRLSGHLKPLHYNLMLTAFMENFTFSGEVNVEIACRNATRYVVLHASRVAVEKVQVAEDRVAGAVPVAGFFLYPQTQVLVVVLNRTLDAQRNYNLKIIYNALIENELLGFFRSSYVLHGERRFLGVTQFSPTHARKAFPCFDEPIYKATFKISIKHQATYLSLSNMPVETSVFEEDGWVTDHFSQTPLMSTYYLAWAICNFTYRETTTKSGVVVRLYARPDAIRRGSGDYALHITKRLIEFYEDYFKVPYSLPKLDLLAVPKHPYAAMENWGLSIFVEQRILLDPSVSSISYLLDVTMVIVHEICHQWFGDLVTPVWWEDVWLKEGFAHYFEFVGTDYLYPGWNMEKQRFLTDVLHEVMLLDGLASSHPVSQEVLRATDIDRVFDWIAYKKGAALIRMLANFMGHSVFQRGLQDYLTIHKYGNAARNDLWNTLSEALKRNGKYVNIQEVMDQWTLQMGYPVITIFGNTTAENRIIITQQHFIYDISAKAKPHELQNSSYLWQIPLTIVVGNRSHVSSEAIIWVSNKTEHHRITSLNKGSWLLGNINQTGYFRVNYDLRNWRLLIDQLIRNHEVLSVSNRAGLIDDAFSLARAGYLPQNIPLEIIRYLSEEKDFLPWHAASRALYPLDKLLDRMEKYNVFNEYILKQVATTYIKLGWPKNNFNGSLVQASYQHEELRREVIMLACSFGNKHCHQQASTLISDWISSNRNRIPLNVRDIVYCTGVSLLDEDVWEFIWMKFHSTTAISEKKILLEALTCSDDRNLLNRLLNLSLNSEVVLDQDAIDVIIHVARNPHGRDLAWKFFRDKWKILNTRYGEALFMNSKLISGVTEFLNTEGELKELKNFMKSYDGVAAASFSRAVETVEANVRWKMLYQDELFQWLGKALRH
Procedure: (§1) The inventor purified TRH-DE from porcine brain according to purification procedures previously published by Dr. K. Bauer, (Max-Planck-Institut, Hannover, Germany) (1). TRH-DE was purified almost 20,000 fold. […] Dipeptidyl peptidase IV (DPP-IV) (EC 3.4.14.5), purified from bovine kidney (7.7 mg ml^−1, specific activity of 17.5 U mg^−1 with Gly-ProAMC as substrate), was obtained as a gilt from Dr. C. H. Williams (Queen's University Belfast, U.K). (DPP-IV was used as the coupling enzyme used in the fluorometric assays).
(§2) One unit (U) of enzyme activity was defined as that amount catalysing the formation of one μmol of product in one minute under the standard conditions employed. All incubations in the assays described below were carried out in 20 mM potassium phosphate buffer, pH 7.5, at 37° C.
Kinetic analysis of the peptide library using HPLC—The ability of each peptide in the library to act as a TRH-DE substrate was assessed using HPLC. As an initial screen, 1 mM peptide was incubated with 0.8 μg TRH-DE in a total volume of 1 ml for 18 h at 37° C. Control samples were included in which peptide (1 mM) or Glp (0.2 mM-0.8 mM) were incubated under identical conditions in the absence of TRH-DE. TRH-DE activity was terminated by the addition of TFA (0.15% v/v) and samples were then analysed using HPLC as described previously (24). Products resulting from TRH-DE hydrolysis could be separated on a C-18 reverse-phase column (Hypersil, UK) using a linear gradient of 0-70% acetonitrile in 0.08% (v/v) TFA. The concentration of Glp formed by the action of TRH-DE on the peptide library was measured by UV absorbance at 206 nm with a quantitative detection limit of 0.1 mM for a 40 μl injection volume, employing a signal to noise ratio of 10. Following the incubation of each peptide with TRH-DE, evidence of Glp in the sample was taken to indicate that the peptide was a TRH-DE substrate.
The rates of hydrolysis for each of those peptides identified as substrates were then compared by measuring Gip production using microassays with shorter incubation times. In these assays peptide (1 mM) was incubated at 37° C. in a total volume of 100 μl. 0.8-3.2 μg TRH-DE and incubations times of 5 min to 18 h were used routinely. Measurements were made in triplicate. The rate of TRH-OH hydrolysis was also measured by this method.

TRH-DE [2] = molecular target: T1, TRH-DE; experiment: continuous coupled fluorometric TRH-DE assay (TRHAMC substrate, DPP-IV coupling enzyme); assay type: biochemical, porcine
Procedure: as §1, §2
Kinetic analysis of peptides that are not hydrolysed by TRH-DE. A recently-developed continuous coupled fluorometric assay (23) was used to investigate the ability of those library peptides that were not hydrolysed by TRH-DE to inhibit TRHAMC degradation by TRH-DE. In this assay, TRHAMC is the substrate and dipeptidyl peptidase IV (DPP-IV) (EC 3.4.14.5) is the coupling enzyme. The reaction sequence is:
The reaction was monitored continuously by measuring the increase in AMC fluorescence. A linear progress curve with no discernible lag period was observed when the reaction was monitored over a period of 10 minutes. Nevertheless, data sampling was not commenced until 100 s from the start of the reaction to ensure measurements were taken after a steady state had been reached (see Ref. 23).
In a preliminary experiment, the peptides were screened for their ability to inhibit TRH-DE activity. The initial rate of TRHAMC hydrolysis by TRH-DE was measured by incubating 5 μM TRHAMC with 1.23 μg DPP-IV and 0.32 μg TRH-DE, both in the absence and presence of each library peptide (1 mM final concentration) under standard assay conditions (23). In each case the percentage inhibition (i%) was calculated using the equation i%=100(1-vi/vo), where vi and vo are the initial velocities in the presence and absence of peptide, respectively.
Since these peptides were poor inhibitors they were not examined further. The Ki values for the remainder of the peptides were determined by measuring their effects on TRHAMC degradation by TRH-DE using the continuous assay. Data were collected in duplicate at five different substrate concentrations and at least three different concentrations of each peptide.
Reversibility and time dependence of the inhibition produced by Glp-Gln-ProNH2, Glp-Asn-ProNH2 and Glp-Asn-ProAMC were examined by initially preincubating TRH-DE with each peptide at 37° C. for various periods up to 75 min. To investigate time dependence, the enzyme-peptide solution was subsequently added to the reaction mixture containing TRHAMC, DPP-IV, buffer and peptide, and TRH-DE activity was measured using the continuous assay. The final concentration of Glp-Gln-ProNH2, Glp-Asn-ProNH2 and Glp-Asn-ProAMC used was 400, 160 and 1 μM, respectively. […] TRH-DE activity was not affected by pre-incubation at 37° C.
Fluorescence measurements were made using a Perkin Elmer LS 50B Luminescence Spectrometer fitted with a thernostated cell holder. Wavelengths for excitation and emission were set at 370 nm and 440 nm, respectively, with slit widths of 10 nm and 5 nm, respectively.

[3] = calculated from percent inhibition measured in duplicate at 5 μM substrate
[4] = from the percent inhibition (n = 3) in the presence of 5 μM substrate

Compound: [pGlu]-Thr-Pro-NH2
- Rate of hydrolysis (TRH-DE [1]): 0.14 ± 0.01 (5) U mg^−1

Compound: Glp-NorVal-ProNH2
- Rate of hydrolysis (TRH-DE [1]): 0.04 ± 0.00 (6) U mg^−1

Compound: NC(=O)C[C@H](NC(=O)[C@@H]1CCC(=O)N1)C(=O)N1CCC[C@H]1C(=O)Nc1ccccc1O
- Ki (TRH-DE [2]; [3]): 6.62 µM

Compound: COc1cccc(NC(=O)[C@@H]2CCCN2C(=O)[C@H](CC(N)=O)NC(=O)[C@@H]2CCC(=O)N2)c1 [m-anisidide]
- Ki (TRH-DE [2]; [3]): 0.86 µM

Compound: NC(=O)C[C@H](NC(=O)[C@@H]1CCC(=O)N1)C(=O)N1CCC[C@H]1C(=O)NC1CCCc2ccccc21 (single isomer, unassigned)
- Ki (TRH-DE [2]; [3]): 63.2 µM

Compound: [pGlu]-Ser-Pro-NH2
- Rate of hydrolysis (TRH-DE [1]): 0.05 ± 0.00 (3) U mg^−1

Compound: Cc1cc(=O)oc2cc(NC(=O)[C@H](Cc3c[nH]c4ccccc34)NC(=O)[C@H](Cc3ccc(O)cc3)NC(=O)[C@@H]3CCCN3C(=O)[C@H](CC(N)=O)NC(=O)[C@@H]3CCC(=O)N3)ccc12 [Glp-Asn-Pro-Tyr-Trp-AMC] ([pGlu]NPYW-{AMC})
- Ki (TRH-DE [2]; non-linear regression, five TRHAMC concentrations and at least three peptide concentrations, mean±S.D. (n=3)): 0.04 µM

Compound: [pGlu]-Val-Pro-NH2
- Rate of hydrolysis (TRH-DE [1]): 0.05 ± 0.00 (3) U mg^−1

Compound: COc1ccccc1NC(=O)[C@@H]1CCCN1C(=O)[C@H](CC(N)=O)NC(=O)[C@@H]1CCC(=O)N1 [o-anisidide]
- Ki (TRH-DE [2]; [3]): 11.6 µM

Compound: NC(=O)C[C@H](NC(=O)[C@@H]1CCC(=O)N1)C(=O)N1CCC[C@H]1C(=O)N[C@@H](Cc1c[nH]c2ccccc12)C(N)=O [Glp-Asn-Pro-Trp-NH2] ([pGlu]NPW-NH2)
- Ki (TRH-DE [2]; [4]): 5.17 µM

Compound: COc1ccc(NC(=O)[C@@H]2CCCN2C(=O)[C@H](CC(N)=O)NC(=O)[C@@H]2CCC(=O)N2)cc1 [p-anisidide]
- Ki (TRH-DE [2]; [3]): 3.24 µM

Compound: NC(=O)[C@@H]1CCCN1C(=O)[C@H](Cc1ccc(O)cc1)NC(=O)[C@@H]1CCC(=O)N1 [Glp-Tyr-ProNH2] ([pGlu]-Tyr-Pro-NH2)
- Rate of hydrolysis (TRH-DE [1]): 0.66 ± 0.04 (5) U mg^−1

Compound: COc1ccc(Cl)cc1NC(=O)[C@@H]1CCCN1C(=O)[C@H](CC(N)=O)NC(=O)[C@@H]1CCC(=O)N1 [5-chloro-2-methoxy anilide]
- Ki (TRH-DE [2]; [3]): 9.95 µM

Compound: [pGlu]-Ala-Pro-NH2
- hydrolysis by TRH-DE (release of Glp) (TRH-DE [1]; 1 mM peptide incubated with TRH-DE 18 h at 37° C., HPLC): not completely degraded; also recorded: only partially degraded
- Glp produced (TRH-DE [1]; 1 mM peptide, overnight incubation with TRH-DE): 0.2 mM
- Rate of hydrolysis (TRH-DE [1]): 0.02 ± 0.00 (3) U mg^−1

Compound: NC(=O)C[C@H](NC(=O)[C@@H]1CCC(=O)N1)C(=O)N1CCC[C@H]1C(=O)NCc1ccccc1 [Benzylamide] ([pGlu]-Asn-Pro-NHBn)
- Ki (TRH-DE [2]; [3]): 11.9 µM

Compound: NC(=O)C[C@H](NC(=O)[C@@H]1CCC(=O)N1)C(=O)N1CCC[C@H]1C(=O)N[C@@H](Cc1ccc(O)cc1)C(=O)N[C@@H](Cc1c[nH]c2ccccc12)C(N)=O [Glp-Asn-Pro-Tyr-Trp-NH2] ([pGlu]NPYW-NH2)
- Ki (TRH-DE [2]; [4]): 0.78 µM

Compound: NC(=O)C[C@H](NC(=O)[C@@H]1CCC(=O)N1)C(=O)N1CCC[C@H]1C(=O)N[C@@H](Cc1c[nH]c2ccccc12)C(=O)N[C@@H](CO)C(=O)N[C@@H](Cc1ccc(O)cc1)C(N)=O [Glp-Asn-Pro-Trp-Ser-Tyr-NH2] ([pGlu]NPWSY-NH2)
- Ki (TRH-DE [2]; [4]): 8.11 µM

Compound: NC(=O)C[C@H](NC(=O)[C@@H]1CCC(=O)N1)C(=O)N1CCC[C@H]1C(=O)N[C@@H](Cc1ccc(O)cc1)C(N)=O [Glp-Asn-Pro-Tyr-NH2] ([pGlu]NPY-NH2)
- Ki (TRH-DE [2]; [4]): 10.3 µM
